Values after ≈ are worked out from the molar mass of the structure shown.
Legend:
[1] = SUPPLEMENTARY: PAMPA permeability assay; assay type: physicochemical; settings: read-out: Permeability
[2] = target: T1, Carnitine O-palmitoyltransferase 1, muscle isoform (Homo sapiens, UniProt Q92523); test: SUPPLEMENTARY: Inhibition of Carnitine palmitoyltransferase 1, muscle isoform; parameters: species or system Muscle tissue
T1 sequence (Q92523 whole entry): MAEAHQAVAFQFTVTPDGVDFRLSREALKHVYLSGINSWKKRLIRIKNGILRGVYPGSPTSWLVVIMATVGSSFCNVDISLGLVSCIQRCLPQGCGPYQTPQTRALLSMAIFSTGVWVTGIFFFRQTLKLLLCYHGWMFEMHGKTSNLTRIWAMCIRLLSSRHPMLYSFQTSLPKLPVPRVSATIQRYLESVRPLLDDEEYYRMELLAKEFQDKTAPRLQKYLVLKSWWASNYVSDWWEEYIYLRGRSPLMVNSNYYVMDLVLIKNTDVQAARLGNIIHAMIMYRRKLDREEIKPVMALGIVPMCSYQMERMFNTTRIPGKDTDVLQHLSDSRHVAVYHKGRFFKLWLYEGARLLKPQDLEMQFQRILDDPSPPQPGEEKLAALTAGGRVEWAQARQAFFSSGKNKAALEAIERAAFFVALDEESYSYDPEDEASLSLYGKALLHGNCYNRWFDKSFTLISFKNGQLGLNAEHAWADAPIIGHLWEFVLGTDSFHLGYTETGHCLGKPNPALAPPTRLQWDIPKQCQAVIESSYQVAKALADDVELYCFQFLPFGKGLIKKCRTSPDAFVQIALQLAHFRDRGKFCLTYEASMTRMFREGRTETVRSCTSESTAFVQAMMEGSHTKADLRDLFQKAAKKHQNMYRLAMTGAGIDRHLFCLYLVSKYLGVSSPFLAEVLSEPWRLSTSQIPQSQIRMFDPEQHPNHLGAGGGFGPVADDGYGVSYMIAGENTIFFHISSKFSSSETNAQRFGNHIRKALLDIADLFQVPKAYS

[3] = SUPPLEMENTARY: Lyophilisation Solubility Assay (LYSA); assay type: physicochemical; settings: read-out: Kinetic_solubility
[4] = target: T2, Carnitine O-palmitoyltransferase 1, liver isoform (Homo sapiens, UniProt P50416); test: (§1) SUPPLEMENTARY: Inhibition of Carnitine palmitoyltransferase 1, liver isoform
T2 sequence (P50416 whole entry): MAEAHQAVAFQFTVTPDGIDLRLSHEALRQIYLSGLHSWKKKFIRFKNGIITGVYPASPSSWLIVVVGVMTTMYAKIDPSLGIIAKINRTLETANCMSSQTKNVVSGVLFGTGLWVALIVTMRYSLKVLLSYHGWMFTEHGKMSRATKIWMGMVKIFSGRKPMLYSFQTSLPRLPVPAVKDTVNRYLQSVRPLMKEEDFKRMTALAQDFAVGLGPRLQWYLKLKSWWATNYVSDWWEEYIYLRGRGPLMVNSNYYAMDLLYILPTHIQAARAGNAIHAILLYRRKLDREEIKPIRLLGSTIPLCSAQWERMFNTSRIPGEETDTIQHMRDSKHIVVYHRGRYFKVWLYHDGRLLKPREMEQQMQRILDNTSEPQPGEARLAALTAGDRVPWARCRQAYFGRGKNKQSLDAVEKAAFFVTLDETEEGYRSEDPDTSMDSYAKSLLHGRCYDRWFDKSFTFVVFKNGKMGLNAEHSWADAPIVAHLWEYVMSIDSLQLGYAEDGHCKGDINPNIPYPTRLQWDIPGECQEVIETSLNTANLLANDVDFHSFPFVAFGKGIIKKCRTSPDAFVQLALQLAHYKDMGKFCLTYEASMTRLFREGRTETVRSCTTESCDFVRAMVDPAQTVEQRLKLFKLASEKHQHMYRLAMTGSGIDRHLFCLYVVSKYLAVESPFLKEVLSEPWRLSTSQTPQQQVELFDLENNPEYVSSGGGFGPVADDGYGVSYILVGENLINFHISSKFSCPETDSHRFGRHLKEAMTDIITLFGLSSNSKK

[5] = target: T3, Carnitine O-palmitoyltransferase 1, liver isoform (Rattus norvegicus, UniProt P32198); test: as §1
T3 sequence (P32198 whole entry): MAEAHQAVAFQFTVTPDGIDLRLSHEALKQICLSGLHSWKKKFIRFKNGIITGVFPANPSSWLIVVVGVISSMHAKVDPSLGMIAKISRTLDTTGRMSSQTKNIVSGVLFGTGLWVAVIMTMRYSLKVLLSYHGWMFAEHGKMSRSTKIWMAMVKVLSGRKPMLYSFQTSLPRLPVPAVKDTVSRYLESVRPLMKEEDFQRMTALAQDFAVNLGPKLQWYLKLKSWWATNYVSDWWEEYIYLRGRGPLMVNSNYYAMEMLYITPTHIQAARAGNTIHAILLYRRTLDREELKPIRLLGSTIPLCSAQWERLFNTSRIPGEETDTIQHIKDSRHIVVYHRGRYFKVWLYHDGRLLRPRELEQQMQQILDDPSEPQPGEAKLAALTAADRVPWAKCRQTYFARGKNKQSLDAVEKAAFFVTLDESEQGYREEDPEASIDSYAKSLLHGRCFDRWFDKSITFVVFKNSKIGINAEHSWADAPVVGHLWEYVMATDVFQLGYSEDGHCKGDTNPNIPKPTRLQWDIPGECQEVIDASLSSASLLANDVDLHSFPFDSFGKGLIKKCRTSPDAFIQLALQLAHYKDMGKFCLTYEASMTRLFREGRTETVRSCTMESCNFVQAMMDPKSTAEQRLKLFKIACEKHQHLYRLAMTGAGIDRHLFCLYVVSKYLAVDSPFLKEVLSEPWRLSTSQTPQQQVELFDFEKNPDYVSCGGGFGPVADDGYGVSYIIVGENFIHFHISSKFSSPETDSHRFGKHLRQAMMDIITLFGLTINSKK

[6] = SUPPLEMENTARY: Lipophilicity (log D) Determination by high-throughput shake-flask; assay type: physicochemical; settings: octanol/water
[7] = target: T4, Carnitine O-palmitoyltransferase 2, mitochondrial (Homo sapiens, UniProt P23786); test: (§2) SUPPLEMENTARY: Inhibition of Carnitine palmitoyltransferase 2
T4 sequence (P23786 whole entry): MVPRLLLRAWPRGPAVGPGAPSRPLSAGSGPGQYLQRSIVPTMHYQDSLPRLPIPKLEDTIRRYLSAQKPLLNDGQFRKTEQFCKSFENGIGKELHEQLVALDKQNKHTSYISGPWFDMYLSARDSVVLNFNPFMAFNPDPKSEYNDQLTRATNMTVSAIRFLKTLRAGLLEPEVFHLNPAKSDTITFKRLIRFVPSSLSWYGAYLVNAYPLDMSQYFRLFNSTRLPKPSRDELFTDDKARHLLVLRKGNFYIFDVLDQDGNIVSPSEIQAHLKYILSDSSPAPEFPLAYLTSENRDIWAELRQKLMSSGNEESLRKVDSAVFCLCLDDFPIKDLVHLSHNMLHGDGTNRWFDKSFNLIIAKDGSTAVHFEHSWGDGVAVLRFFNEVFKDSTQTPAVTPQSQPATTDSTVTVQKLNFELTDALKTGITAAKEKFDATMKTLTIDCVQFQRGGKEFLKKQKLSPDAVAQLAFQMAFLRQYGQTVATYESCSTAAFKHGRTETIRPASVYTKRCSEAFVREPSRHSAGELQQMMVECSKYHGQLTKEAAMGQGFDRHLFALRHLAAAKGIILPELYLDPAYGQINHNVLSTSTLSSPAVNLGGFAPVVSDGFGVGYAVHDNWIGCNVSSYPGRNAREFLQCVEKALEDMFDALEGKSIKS

[8] = target: T5, Carnitine O-palmitoyltransferase 2, mitochondrial (Rattus norvegicus, UniProt P18886); test: as §2
T5 sequence (P18886 whole entry): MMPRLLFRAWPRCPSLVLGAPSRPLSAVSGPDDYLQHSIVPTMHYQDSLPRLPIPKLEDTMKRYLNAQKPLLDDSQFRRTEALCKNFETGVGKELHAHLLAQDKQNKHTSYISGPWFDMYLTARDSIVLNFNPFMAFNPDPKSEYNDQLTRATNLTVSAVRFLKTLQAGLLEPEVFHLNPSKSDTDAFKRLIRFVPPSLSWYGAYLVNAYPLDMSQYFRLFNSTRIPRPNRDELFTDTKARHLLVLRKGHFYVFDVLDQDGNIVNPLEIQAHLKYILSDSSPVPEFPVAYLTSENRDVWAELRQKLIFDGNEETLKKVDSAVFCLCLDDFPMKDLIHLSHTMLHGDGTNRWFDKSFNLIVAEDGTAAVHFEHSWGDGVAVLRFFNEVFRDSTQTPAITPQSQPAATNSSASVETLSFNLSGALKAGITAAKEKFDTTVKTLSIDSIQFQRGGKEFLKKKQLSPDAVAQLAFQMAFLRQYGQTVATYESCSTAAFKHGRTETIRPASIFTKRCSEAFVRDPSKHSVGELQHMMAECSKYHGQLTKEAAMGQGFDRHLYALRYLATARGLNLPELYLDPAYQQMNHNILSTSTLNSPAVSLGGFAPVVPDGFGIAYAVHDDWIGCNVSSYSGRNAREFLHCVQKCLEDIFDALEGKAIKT

Compound | Papp [1] [×10⁻⁶ cm/s] | IC50 [2] [nM] | solubility kinetic [3] [µg/mL] | IC50 [4] [nM] | IC50 [5] [nM] | logD [6] | IC50 [7] [nM] | IC50 [8] [nM]
NC(=O)c1cccc(-c2noc([C@H]3CCCCN3C(=O)COc3ccccc3)n2)c1 | 2.55 | 72300 | 42 (≈ 103 µM) | 40.8 | 156 | 2.57 | 16700 | 45700
O=C([C@H]1CCCCN1C(=O)COc1ccccc1)N1CCc2cccc(Cl)c2C1 | 1.91 | 79000 | < 1 | 182 | 110 | 3.2 | 2810 | 3520
COc1ccc(Cl)cc1S(=O)(=O)N(C)c1cc(C(=O)Nc2ccc(C(=O)O)cc2)cc2c1OCCO2 | 2.54 | 4050 | > 710 | 219 | 249 | 0.58 | 20700 | 29000
O=C(COc1ccccc1)N1CCCC[C@@H]1c1nc(-c2ccc3nccn3c2)no1 | 6.32 | 78100 | 17 (≈ 42.1 µM) | 167 | 334 | 2.75 | 14500 | > 100000
O=C1Cc2cc(-c3noc([C@H]4CCCCN4C(=O)COc4ccccc4)n3)ccc2N1 | 2.61 | 27600 | 14.5 (≈ 34.7 µM) | 13.2 | 70.8 | 2.93 | 42900 | 53500
COc1ccc(Cl)cc1CN(C(=O)C(C)C)c1cc(C(=O)Nc2nc(CC(=O)O)cs2)ccc1Cl | 3.2 | 2560 | 438 (≈ 816 µM) | 236 | 440 | 1.34 | > 100000 | > 100000
O=C(COc1ccccc1)N1CCCC[C@@H]1c1noc(-c2ccc(-n3cnnn3)cc2)n1 | 1.7 | > 100000 | 8 (≈ 18.5 µM) | 98.6 | 98.1 | 2.92 | 15000 | > 100000
COc1ccc(Cl)cc1Cn1cc(C(=O)O)c2ccc(C(=O)Nc3ccccc3)cc21 | 0.53 | > 100000 | < 1 | 99.6 | 104 | 3.13 | > 100000 | > 100000
COc1ccc(Cl)cc1S(=O)(=O)N1COCc2ccc(C(=O)Nc3nc(CC(=O)O)cs3)cc21 | 1.31 | 1380 | 7 (≈ 13.4 µM) | 54 | 82.9 | -0.47 | > 100000 | > 100000
N#Cc1cccc(-c2n[nH]c([C@H]3CCCCN3C(=O)COc3ccccc3)n2)c1 | 2.96 | > 100000 | 31 (≈ 80 µM) | 161 | 219 | 2.98 | 29800 | 33800
COc1ccc(Cl)cc1CN1C(=O)C(C)(C)c2ccc(C(=O)Nc3ccc(C(=O)O)cc3)cc21 | 0.94 | 2170 | 136 (≈ 284 µM) | 67.1 | 126 | 1.83 | 5510 | 9030

Reference: ChEMBL document CHEMBL3431459, “Roche carnitine palmitoyltransferase modulator screening data (supplementary data associated with the publication CHEMBL2216752)”
